Results taken from US20240197938A1, “ANTIMICROBIAL COMPOUNDS BASED ON GLUCOHEPTONIC ACIDS AND THEIR SALTS” (HARCROS CHEMICALS, INC., priority 2021, published 2024).

Experiments:
Format in all cases: cell-based
Candida albicans = test: ASTM E2315-16 Time-Kill Procedure; settings: for Log Reduction: 30 seconds
Description: (§1) Select compounds were tested for antimicrobial activity using ASTM method […]-16 (Standard Guide for Assessment of Antimicrobial Activity using a Time-Kill Procedure). Six microbes were tested: Candida albicans, Staphylococcus aureus, Staphylococcus epidermidis. Escherichia coli, Salmonella abony, and Listeria monocytogenes. Four chlorhexidine salts were tested: chlorhexidine di-α-glucoheptonate (Sample G), chlorhexidine di-β73-glucoheptonate (Sample H), chlorhexidine digluconate (Sample I), and chlorhexidine diacetate (Sample P). Both chlorhexidine diglucoheptonate salts were prepared at a 2:1 molar ratio of glucoheptonic acid to chlorhexidine. Dilutions of each salt were prepared using sterile water (20-30 ppm hardness), to achieve the desired wt. % concentration. Two glucoheptonic acids were evaluated for antimicrobial activity against the same six microbes as Example 13. Sample L was α-glucoheptonic acid. Sample M was β73-glucoheptonic acid. Benzalkonium salts were also tested using the same procedure as set forth in Example 13. The samples were benzalkonium chloride (C12-C16) (Sample C), benzalkonium chloride (C12-C14) (Sample D), benzalkonium chloride in combination with a stoichiometric amount of α-glucoheptonate (Sample F), and benzalkonium chloride in combination with a molar excess of α-glucoheptonate (Sample N). Sample F was prepared by mixing and extensively heating a stoichiometric quantity (1:1) of sodium α-glucoheptonate with benzalkonium chloride, typified by the C12-14 alkyl chain. Sample N was prepared by simply blending benzalkonium chloride, typified by the C12-16 chain, with a molar excess of sodium α-glucoheptonate (1.6:1). Both Samples F and N contain sodium chloride.

Staphylococcus aureus = test: ASTM E2315-16 Time-Kill Procedure; settings: for Log Reduction: 30 seconds
Description: as §1

[1] = system: Staphylococcus epidermidis; test: ASTM E2315-16 Time-Kill Procedure; settings: for Log Reduction: 30 seconds
Description: as §1

Listeria monocytogenes = test: ASTM E2315-16 Time-Kill Procedure; settings: for Log Reduction: 30 seconds
Description: as §1, with “concentration.” for “concentration. Two glucoheptonic acids were evaluated for antimicrobial activity against the same six microbes as Example 13. Sample L was α-glucoheptonic acid. Sample M was β73-glucoheptonic acid.”

Escherichia coli = test: ASTM E2315-16 Time-Kill Procedure; settings: 30 seconds
Description: as §1, with “concentration.” for “concentration. Two glucoheptonic acids were evaluated for antimicrobial activity against the same six microbes as Example 13. Sample L was α-glucoheptonic acid. Sample M was β73-glucoheptonic acid.”

Salmonella abony = test: ASTM E2315-16 Time-Kill Procedure; settings: 30 seconds
Description: as §1, with “concentration.” for “concentration. Two glucoheptonic acids were evaluated for antimicrobial activity against the same six microbes as Example 13. Sample L was α-glucoheptonic acid. Sample M was β73-glucoheptonic acid.”

[2] = system: all microbes (Candida albicans, Staphylococcus aureus, Staphylococcus epidermidis, Escherichia coli, Salmonella abony, Listeria monocytogenes); test: ASTM E2315-16 Time-Kill Procedure, average across all microbes; settings: for Log Reduction, Average, all microbes: 30 seconds; for average Log Reduction (LR) in microbial population across all microbes: 10 minutes
Description: Select compounds were tested for antimicrobial activity using ASTM method […]-16 (Standard Guide for Assessment of Antimicrobial Activity using a Time-Kill Procedure). Six microbes were tested: Candida albicans, Staphylococcus aureus, Staphylococcus epidermidis. Escherichia coli, Salmonella abony, and Listeria monocytogenes. Four chlorhexidine salts were tested: chlorhexidine di-α-glucoheptonate (Sample G), chlorhexidine di-β73-glucoheptonate (Sample H), chlorhexidine digluconate (Sample I), and chlorhexidine diacetate (Sample P). Both chlorhexidine diglucoheptonate salts were prepared at a 2:1 molar ratio of glucoheptonic acid to chlorhexidine. Dilutions of each salt were prepared using sterile water (20-30 ppm hardness), to achieve the desired wt. % concentration. Samples G, H, I, and P were also tested at a concentration of 0.60 wt % active and evaluated for the average Log Reduction in microbial population at 10 minutes, across all microbes. A further test was conducted at a concentration of 1.0 wt % active and evaluated for the average Log Reduction in microbial population at 10 minutes, across all microbes. Benzalkonium salts were also tested using the same procedure as set forth in Example 13. The samples were benzalkonium chloride (C12-C16) (Sample C), benzalkonium chloride (C12-C14) (Sample D), benzalkonium chloride in combination with a stoichiometric amount of α-glucoheptonate (Sample F), and benzalkonium chloride in combination with a molar excess of α-glucoheptonate (Sample N). Sample F was prepared by mixing and extensively heating a stoichiometric quantity (1:1) of sodium α-glucoheptonate with benzalkonium chloride, typified by the C12-14 alkyl chain. Sample N was prepared by simply blending benzalkonium chloride, typified by the C12-16 chain, with a molar excess of sodium α-glucoheptonate (1.6:1). Both Samples F and N contain sodium chloride. A further antimicrobial test was conducted to determine the log reduction at 10 minutes. Samples C, D, F, and N are as defined above.

[3] = 2.5 % w/w, contact time 10 minutes
[4] = 5.0 % w/w, contact time 10 minutes
[5] = 5.0 % w/w, contact time 5 minutes

Row | SMILES | Log Reduction (Candida albicans; 0.20% (wt. %)) | Log Reduction (Candida albicans; 0.60% (wt. %)) | Log Reduction (Candida albicans; 1.00% (wt. %)) | Log Reduction (Staphylococcus aureus; 0.20% (wt. %)) | Log Reduction (Staphylococcus aureus; 0.60% (wt. %)) | Log Reduction (Staphylococcus aureus; 1.00% (wt. %)) | Log Reduction ([1]; 0.20% (wt. %)) | Log Reduction ([1]; 0.60% (wt. %)) | Log Reduction ([1]; 1.00% (wt. %)) | Log Reduction (Listeria monocytogenes; 0.20% (wt. %)) | Log Reduction (Listeria monocytogenes; 0.60% (wt. %)) | Log Reduction (Listeria monocytogenes; 1.00% (wt. %)) | Log Reduction (Escherichia coli; 0.20% (wt. %)) | Log Reduction (Escherichia coli; 0.60% (wt. %)) | Log Reduction (Escherichia coli; 1.00% (wt. %)) | Log Reduction (Salmonella abony; 0.20% (wt. %)) | Log Reduction (Salmonella abony; 0.60% (wt. %)) | Log Reduction (Salmonella abony; 1.00% (wt. %)) | Log Reduction, Average, all microbes ([2]; 0.20% (wt. %)) | Log Reduction, Average, all microbes ([2]; 0.60% (wt. %)) | further results
1 | N=C(NCCCCCCNC(=N)NC(=N)Nc1ccc(Cl)cc1)NC(=N)Nc1ccc(Cl)cc1.O=C(O)C(O)C(O)C(O)C(O)C(O)CO.O=C(O)C(O)C(O)C(O)C(O)C(O)CO [Sample G, chlorhexidine di-α-glucoheptonate] | 0.75 | 1.45 | 4.56 | 0.77 | 1.07 | 3.06 | 0.95 | 1.91 | 3.65 | 1.34 | 1.49 | 4.99 | 3.57 | 3.66 | 3.77 | 3.04 | 3.14 | 3.39 | 1.74 | 2.12 | performance in the Time-Kill Test (Candida albicans; in words): performed very strongly; performance in the Time-Kill Test (Listeria monocytogenes; in words): performed very strongly; Log Reduction, Average, all microbes ([2]; 1.00% (wt. %)): 3.90; average Log Reduction (LR) in microbial population across all microbes ([2]; 0.60 wt % active): 3.85; average Log Reduction (LR) in microbial population across all microbes ([2]; 1.0 wt % active): 5.34
2 | N=C(NCCCCCCNC(=N)NC(=N)Nc1ccc(Cl)cc1)NC(=N)Nc1ccc(Cl)cc1.O=C(O)[C@H](O)[C@@H](O)[C@H](O)[C@H](O)CO.O=C(O)[C@H](O)[C@@H](O)[C@H](O)[C@H](O)CO [Sample I, chlorhexidine digluconate] | 2.91 | 4.35 | 6.40 | 1.77 | 3.07 | 3.37 | 2.00 | 3.08 | 3.25 | 1.99 | 3.13 | 3.91 | 2.93 | 3.07 | 3.27 | 1.86 | 2.63 | 2.89 | 2.24 | 3.22 | Log Reduction, Average, all microbes ([2]; 1.00% (wt. %)): 3.85; average Log Reduction (LR) in microbial population across all microbes ([2]; 0.60 wt % active): 4.84; average Log Reduction (LR) in microbial population across all microbes ([2]; 1.0 wt % active): 5.46
3 | O=C(O)[C@H](O)[C@H](O)[C@@H](O)[C@H](O)[C@H](O)CO [Sample L, α-glucoheptonic acid] |  |  |  |  |  |  |  |  |  |  |  |  |  |  |  |  |  |  |  |  | Log Reduction (LR) (Candida albicans; [3]): 3.65; Log Reduction (LR) (Candida albicans; [4]): 3.00; Log Reduction (LR) [1, 3]: 3.39; Log Reduction (LR) [1, 5]: 3.05; Log Reduction (LR) [1, 4]: 3.50
4 | O=C(O)[C@H](O)[C@H](O)[C@@H](O)[C@H](O)[C@H](O)CO [Sample M, β73-glucoheptonic acid] |  |  |  |  |  |  |  |  |  |  |  |  |  |  |  |  |  |  |  |  | Log Reduction (LR) (Candida albicans; [5]): 3.47; Log Reduction (LR) (Candida albicans; [4]): 4.00; Log Reduction (LR) (Staphylococcus aureus; [3]): 3.13; Log Reduction (LR) (Staphylococcus aureus; [5]): 4.07; Log Reduction (LR) (Staphylococcus aureus; [4]): 4.13; Log Reduction (LR) ([1]; 1.0 % w/w, contact time 10 minutes): 3.47; Log Reduction (LR) ([1]; 2.5 % w/w, contact time 5 minutes): 3.17; Log Reduction (LR) [1, 3]: 3.50; Log Reduction (LR) [1, 5]: 3.39; Log Reduction (LR) [1, 4]: 3.47
5 | CC(=O)O.CC(=O)O.NC(=N\CCCCCC/N=C(N)/N=C(\N)Nc1ccc(Cl)cc1)/N=C(\N)Nc1ccc(Cl)cc1 [Sample P, chlorhexidine diacetate] | 2.56 | 3.35 | 4.48 | 3.22 | 4.93 | 5.07 | 1.57 | 3.57 | 3.75 | 1.29 | 1.36 | 1.55 | 1.54 | 1.59 | 3.07 | 2.17 | 3.34 | 4.34 | 2.06 | 3.02 | Log Reduction, Average, all microbes ([2]; 1.00% (wt. %)): 3.71; average Log Reduction (LR) in microbial population across all microbes ([2]; 0.60 wt % active): 4.09; average Log Reduction (LR) in microbial population across all microbes ([2]; 1.0 wt % active): 5.17
